Consider 4 molecules from patent US10793536B2, “Vortioxetine pamoic acid salt and crystal form thereof” (SHANGHAI SYNERGY PHARMACEUTICAL SCIENCES CO., LTD, priority 2016, dated 2020).

Read-outs that look alike come from different tables or passages of the source.

The conditions of data set [1]: Wistar rat, single intramuscular injection 45.6 mg/kg; for AUC(0-t), Mean / AUC(0-∞), Mean / Cmax, Mean / MRT(0-∞), Mean / Tmax, Mean / t1/2z, Mean: non-compartment model. Here is the method: Weighing 75.1 mg of each of crystal forms A, B and D of vortioxetine semi pamoic acid, adding 1 mL diluent (water for Injection containing 1% CMC-Na and 5% mannitol) to each of them, and whirling for 2 min to obtain 3 suspensions (pH˜7) of 3 crystal forms with a concentration of 45.6 mg/mL.
Drugs are administered to 9 male clean Wistar rats (Shanghai Sippr BK Laboratory Animals Ltd) with a weight range of 183.0˜186.3 g in accordance with Table 4.
Collecting blood samples by jugular puncture, about 0.2 mL for each sample, resisting against blood coagulation using heparin sodium, placing the collected blood samples on ice, wherein the blood collecting time is as follows: 30 min, 1 hrs, 2 hrs, 4 hrs, 8 hrs, 24 hrs, 48 hrs, 72 hrs, 120 hrs, 168 hrs, 216 hrs, 264 hrs, 312 hrs, 360 hrs, 504 hrs, and 672 hrs […] after administration of drug; placing the collected blood samples on ice, and separating the blood plasma centrifugally (centrifugal condition: 8,000 revolutions/min, 6 minutes, 2-8° C.); storing the collected blood plasma at −70° C. before analysis.
Separately calculating the pharmacokinetic parameters AUC0-t, AUC0-∞, MRT0-∞, Cmax, Tmax, T1/2 etc. of the tested samples using a non-compartment model for pharmacokinetic calculation software WinNonlin5.2 according to the blood concentration data of the drug. For samples with a concentration lower than the quantitative lower limit, when the pharmacokinetic parameters are calculated, the samples sampled before reaching Cmax should be calculated at zero value; after reaching Cmax, the samples at the sample point should be calculated by “below the limit of quantitation” (BLQ).

The conditions of data set [2]: single dose of vortioxetine injected to the body of the rat; FDA pharmacological summary document No. 204447Orig 1s000; cited from earlier work.

With `Cc1ccc(Sc2ccccc2N2CCNCC2)c(C)c1.Cc1ccc(Sc2ccccc2N2CCNCC2)c(C)c1.O=C(O)c1cc2ccccc2c(Cc2c(O)c(C(=O)O)cc3ccccc23)c1O` [Crystal form A of vortioxetine semi pamoic acid salt] [Crystal Form a Vortioxetine Semi Pamoic Acid Salt], the “Concentration of vortioxetine in plasma, Mean” value (from here on “Concentration of vortioxetine”) in data set [1] (blood sampling time 0.5 h) is listed as 3.12 ng/mL; in data set [1] (blood sampling time 1 h), 5.80 ng/mL; in data set [1] (blood sampling time 2 h), 8.41 ng/mL; in data set [1] (blood sampling time 4 h), 10.75 ng/mL; in data set [1] (blood sampling time 8 h), 16.22 ng/mL; in data set [1] (blood sampling time 24 h), 15.77 ng/mL. Besides, the “Concentration of vortioxetine” value in data set [1] (blood sampling time 48 h) was determined as 8.70 ng/mL; in data set [1] (blood sampling time 72 h) it was 11.68 ng/mL; in data set [1] (blood sampling time 120 h) it was 35.38 ng/mL; in data set [1] (blood sampling time 168 h) it was 31.34 ng/mL; in data set [1] (blood sampling time 216 h) it was 13.35 ng/mL; in data set [1] (blood sampling time 264 h), 6.29 ng/mL. In addition, the “Concentration of vortioxetine” value in data set [1] (blood sampling time 312 h) is on record as 4.07 ng/mL; in data set [1] (blood sampling time 360 h), 2.26 ng/mL; in data set [1] (blood sampling time 504 h) it was 1.73 ng/mL; in data set [1] (blood sampling time 672 h), 1.88 ng/mL. Moreover, in data set [1], the “AUC(0-t), Mean” value came to 6143.08 ng·h/mL. For the same molecule, the “AUC(0-∞), Mean” value in data set [1] stood at 6503.21 ng·h/mL. Further, the “Cmax, Mean” value in data set [1] is given as 38.18 ng/mL. In addition, in data set [1], the “MRT(0-∞), Mean” value is 227.18 h. In data set [1], the “Tmax, Mean” value came out at 136.00 h. For the same molecule, the “t1/2z, Mean” value in data set [1] came to 126.06 h.
`Cc1ccc(Sc2ccccc2N2CCNCC2)c(C)c1.Cc1ccc(Sc2ccccc2N2CCNCC2)c(C)c1.O=C(O)c1cc2ccccc2c(Cc2c(O)c(C(=O)O)cc3ccccc23)c1O` [Crystal form B of vortioxetine semi pamoic acid salt] [Crystal Form B Vortioxetine Semi Pamoic Acid Salt]: the “Concentration of vortioxetine” value is recorded as 2.14 ng/mL in data set [1] (blood sampling time 0.5 h); 4.56 ng/mL in data set [1] (blood sampling time 1 h); 10.17 ng/mL in data set [1] (blood sampling time 2 h); 18.05 ng/mL in data set [1] (blood sampling time 4 h); 21.12 ng/mL in data set [1] (blood sampling time 8 h); 17.67 ng/mL in data set [1] (blood sampling time 24 h). In addition, the “Concentration of vortioxetine” value in data set [1] (blood sampling time 48 h) worked out at 14.56 ng/mL; in data set [1] (blood sampling time 72 h) it was 15.65 ng/mL; in data set [1] (blood sampling time 120 h), 32.47 ng/mL; in data set [1] (blood sampling time 168 h), 40.21 ng/mL; in data set [1] (blood sampling time 216 h), 24.00 ng/mL; in data set [1] (blood sampling time 264 h), 15.19 ng/mL. Further, the “Concentration of vortioxetine” value in data set [1] (blood sampling time 312 h) came out at 10.55 ng/mL; in data set [1] (blood sampling time 360 h), 6.02 ng/mL; in data set [1] (blood sampling time 504 h), 2.62 ng/mL; in data set [1] (blood sampling time 672 h), 2.06 ng/mL. Further, the “AUC(0-t), Mean” value in data set [1] came out at 8588.42 ng·h/mL. The “AUC(0-∞), Mean” value in data set [1] was determined as 8939.49 ng·h/mL. Besides, in data set [1], the “Cmax, Mean” value is on record as 40.21 ng/mL. In data set [1], the “MRT(0-∞), Mean” value is 226.30 h. Also, the “Tmax, Mean” value in data set [1] is reported as 168 h. For the same molecule, the “t1/2z, Mean” value in data set [1] turned out to be 116.6 h.
Take `Cc1ccc(Sc2ccccc2N2CCNCC2)c(C)c1.Cc1ccc(Sc2ccccc2N2CCNCC2)c(C)c1.O=C(O)c1cc2ccccc2c(Cc2c(O)c(C(=O)O)cc3ccccc23)c1O` [Crystal form D of vortioxetine semi pamoic acid salt] [Crystal Form D Vortioxetine Semi Pamoic Acid Salt]: the “Concentration of vortioxetine” value in data set [1] (blood sampling time 0.5 h) is reported as 4.34 ng/mL; in data set [1] (blood sampling time 1 h), 8.10 ng/mL; in data set [1] (blood sampling time 2 h) it was 11.59 ng/mL; in data set [1] (blood sampling time 4 h) it was 15.37 ng/mL; in data set [1] (blood sampling time 8 h), 23.28 ng/mL; in data set [1] (blood sampling time 24 h) it was 24.08 ng/mL. For the same molecule, the “Concentration of vortioxetine” value in data set [1] (blood sampling time 48 h) is listed as 14.11 ng/mL; in data set [1] (blood sampling time 72 h) it was 19.52 ng/mL; in data set [1] (blood sampling time 120 h), 41.99 ng/mL; in data set [1] (blood sampling time 168 h), 46.20 ng/mL; in data set [1] (blood sampling time 216 h), 16.02 ng/mL; in data set [1] (blood sampling time 264 h) it was 5.66 ng/mL. In addition, the “Concentration of vortioxetine” value in data set [1] (blood sampling time 312 h) was found to be 3.66 ng/mL; in data set [1] (blood sampling time 360 h), 2.03 ng/mL; in data set [1] (blood sampling time 504 h) it was 1.56 ng/mL; in data set [1] (blood sampling time 672 h) it was 1.69 ng/mL. Further, in data set [1], the “AUC(0-t), Mean” value is 7856.57 ng·h/mL. Further, in data set [1], the “AUC(0-∞), Mean” value was 8392.02 ng·h/mL. Moreover, the “Cmax, Mean” value in data set [1] is recorded as 48.65 ng/mL. Also, the “MRT(0-∞), Mean” value in data set [1] is on record as 162.48 h. Besides, the “Tmax, Mean” value in data set [1] was 152.00 h. Also, the “t1/2z, Mean” value in data set [1] is on record as 228.84 h.
As to `Cc1ccc(Sc2ccccc2N2CCNCC2)c(C)c1` [vortioxetine, 1-[2-(2,4-dimethylphenylthiorueaalkyl)phenyl] piperazine], the “half-life period t1/2” value in data set [2] is on record as “more than two hours”.
